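1) Cells in 96-well plates. 2) Compound, 48 h, 5 concentrations. 3) Linear interpolation between surrounding doses. 4) Unreached endpoint = highest concentration. Here, GI50 denotes the concentration required for 50% inhibition of growth. TGI marks complete inhibition of growth.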
Legend:
Experiment in all cases: NCI tumour cell line growth inhibition, 48 h
786-0 renal = system: 786-0 renal
A498 renal = system: A498 renal
CAKI-1 renal = system: CAKI-1 renal
DU-145 prostate = system: DU-145 prostate
HCT-15 colon = system: HCT-15 colon
IGROV1 ovarian = system: IGROV1 ovarian
NCI-H460 lung = system: NCI-H460 lung
OVCAR-3 ovarian = system: OVCAR-3 ovarian
PC-3 prostate = system: PC-3 prostate
SNB-19 CNS = system: SNB-19 CNS

| SMILES | GI50 (786-0 renal) [µM] | TGI (786-0 renal) [µM] | GI50 (A498 renal) [µM] | TGI (A498 renal) [µM] | GI50 (CAKI-1 renal) [µM] | TGI (CAKI-1 renal) [µM] | GI50 (DU-145 prostate) [µM] | TGI (DU-145 prostate) [µM] | GI50 (HCT-15 colon) [µM] | TGI (HCT-15 colon) [µM] | GI50 (IGROV1 ovarian) [µM] | TGI (IGROV1 ovarian) [µM] | GI50 (NCI-H460 lung) [µM] | TGI (NCI-H460 lung) [µM] | GI50 (OVCAR-3 ovarian) [µM] | TGI (OVCAR-3 ovarian) [µM] | GI50 (PC-3 prostate) [µM] | TGI (PC-3 prostate) [µM] | GI50 (SNB-19 CNS) [µM] | TGI (SNB-19 CNS) [µM] |
| --- | --- | --- | --- | --- | --- | --- | --- | --- | --- | --- | --- | --- | --- | --- | --- | --- | --- | --- | --- | --- |
| COc1ccc(-c2cc3nccn3c(Nc3ncccc3C(N)=O)n2)cc1OC | 2.42 | > 100 | 0.456 | > 100 | 0.274 | > 100 | 2 | > 100 | 0.659 | > 100 | 0.472 | 6.19 | 2.19 | > 100 | > 47 | > 100 | > 100 | > 100 | > 100 | > 100 |
| CCOC(=O)c1cn2ncnc(Oc3ccc(NC(=O)NCCN(CC)CC)c(Cl)c3)c2c1C | 1.89 | 3.75 | 2.15 | 8.08 | 1.9 | 3.82 | 7.1 | 55.1 | 1.84 | 4.07 | 6.71 | 26.2 | 9.1 | 24.4 | 8.12 | 35.8 | 3.22 | 15 | 10.5 | 28.1 |
| CC(C)[C@H](O)C(=O)N[C@H]1Cc2ccc3c(c2)[C@]24C5=C(N=C(O5)[C@H](C(C)C)NC1=O)c1nc(Cl)c(o1)-c1c(Cl)[nH]c5cccc(c15)-c1cccc2c1N[C@H]4O3 | 0.00279 | 2.77 |  | > 10 | 0.00468 | 3.29 | < 0.001 | 0.748 |  | > 10 | < 0.001 | > 10 | < 0.001 | 1.21 | < 0.001 | 0.00747 | < 0.001 | > 10 | < 0.001 |  |
| COc1cccc2cc(N(C)c3nc(C)nc4ccsc34)ccc12 | < 0.01 | 12.3 | < 0.01 | < 0.015 | < 0.01 | 15.3 | < 0.01 | 10.6 | < 0.01 | 13.5 | < 0.01 | 14.5 | < 0.01 | 10.9 | < 0.01 |  | < 0.01 | 15.1 | < 0.01 | 22.9 |
| CCCCCCCCCCC(CN(CC)CC)C(O)c1ccccc1 (stereo unspecified) | 1.67 | 3.15 | 3.68 | 14.4 | 1.51 | 2.92 | 1.89 | 3.49 | 1.31 | 2.77 | 1.82 | 3.51 | 1.88 | 3.5 | 1.99 | 3.78 | 1.62 | 3.13 | 1.86 | 3.77 |
| O=C(Nn1c2c(sc1=NC1CC1)C(=O)c1ccccc1C2=O)c1cc2ccc1CCc1ccc(cc1)CC2 | 2.75 | 7.93 | 20.7 | 63.4 | 2.48 | 14.9 | 1.85 | 3.43 | 1.51 | 3.24 | 1.16 | 4.74 | 3.35 | 12.2 | 1.53 | 4.42 | 1.62 | 10.7 | 3.09 | 11.7 |
